This is an account of results in patent US20080227644A1, “Use of abscisic acid to control fruiting” (priority 2007, published 2008).

Common to all, as to format: in vivo
One test relates to PF-27 peach trees. The experiment in a line: Foliar spray of peach tree limbs at shuck split stage, fruit retention. Conditions: 1000 ppm, sprayed to runoff. From the text: Limbs of PF-27 peach trees with fruit at the shuck split stage were flagged; the number of fruit distal to the flagging was counted. The limbs were sprayed to runoff with either water or 1000 ppm abscisic acid (S-ABA; ABA; S-(+)-abscisic acid; +-ABA, (+)-(S)-cis,trans-abscisic acid,(+)-(S)-cis,trans-ABA; S-ABA; (S)-5-(1-hydroxy-2,6,6,-trimethyl-4-oxo-2-cyclohexen-1-yl)-3-methyl-(2Z,4E)-pentadienoic acid; CAS no. 21293-29-8). After 8 and 19 days the fruit were re-counted and the percent fruit retention was determined. Limbs treated with 1000 ppm ABA retained less fruit than limbs treated with water 19 days following treatment (Table 1).

Another test concerns Cacaks Schone plum. The experiment in a line: Spray of plum trees at fruitlet set stage, fruit set and fruit size. The conditions noted are these: 600 ppm at fruitlet set stage. The protocol:
(§1) Trees of Cacaks Schone plum and Katinka plum were sprayed with 600 ppm ABA at the fruitlet set stage or left untreated. The number of fruit per flower was determined after the normal fruit drop period had ended. At harvest the weight per 100 fruits was measured for both the ABA treated and the untreated trees. Spraying Cacaks Schone or Katinka plum trees with ABA at the fruitlet set stage reduced the number of fruits per flower and increased the average fruit weight compared to untreated trees (Table 2).

In test [1] the test system is Katinka plum. Described as above. Conditions: 600 ppm at fruitlet set stage. The protocol: as §1
The test system of a further test is Cacaks plum. The experiment in a line: Spray of plum trees at petal fall (BBCH stage 69), fruit set, yield, fruit weight. The conditions noted are these: at harvest. The protocol: Trees of Cacaks plum were sprayed at petal fall (BBCH stage 69) with 500 ppm or 1000 ppm ABA or left untreated (Table 3). Percent fruit set, average yield and average fruit weight were determined at harvest. Spraying Cacaks plum trees with ABA reduced fruit set percentage and yield per tree and increased average fruit weight (Table 3).

Test [2] has as its system Katinka plum. The description is as above. Conditions: at harvest. The protocol:
Trees of Katinka plum were sprayed at petal fall (BBCH stage 69) with 500 ppm or 1000 ppm ABA or left untreated (Table 4). Percent fruit set, average yield and average fruit weight were determined at harvest. Spraying Katinka plum trees with ABA reduced fruit set percentage and yield per tree and increased average fruit weight (Table 4).

The next test deals with Elegant Lady Peach. The experiment in a line: Spray of trees at petal fall (BBCH stage 69), fruit set. The conditions noted are these: 1000 ppm at petal fall; at harvest. The protocol:
(§2) Trees of Lady Elana Apricot and Elegant Lady Peach were sprayed at petal fall (BBCH stage 69) with 1000 ppm ABA or left untreated (Table 5). Percent fruit set was determined at harvest. Spraying Lady Elana Apricot and Elegant Lady Peach trees with ABA reduced percent fruit set (Table 5).

A further test has as its system Lady Elana Apricot. Described as above. The conditions noted are these: 1000 ppm at petal fall; at harvest. The protocol:
as §2

The test system of test [3] is European seedless cucumber (var. Flamingo) plants. The experiment in a line: Foliar spray of greenhouse cucumber plants, fruit abortion. Conditions: 100 ppm, sprayed to drip at 20 node growth stage. The protocol:
European seedless cucumber (var. Flamingo) plants were grown in a greenhouse. At the 20 node growth stage the plants were sprayed to drip with ABA (100 ppm) solution or left unsprayed (control). ABA treated plants had twice the rate of fruit abortion compared to the control plants (Table 6).

For “(S)-5-(1-hydroxy-2,6,6,-trimethyl-4-oxo-2-cyclohexen-1-yl)-3-methyl-(2Z,4E)-pentadienoic acid [ABA]”, the percent fruit retention in the test on PF-27 peach trees (8 days after treatment) is on record as 97%; with PF-27 peach trees (19 days after treatment) it was 69%. Besides, the Fruit/flower is given as 0.09 in the test with Cacaks Schone plum (after normal fruit drop period) and 0.45 in the test on Katinka plum [1] (after normal fruit drop period). Further, the 100 fruit weight was 2.23 kg in the test with Cacaks Schone plum (at harvest) and 2.35 kg in the test with Katinka plum [1] (at harvest). The “% Fruit set” value in the test on Cacaks plum (500 ppm at petal fall) is recorded as 20%; in the test on Cacaks plum (1000 ppm at petal fall), 11%; with Katinka plum [2] (500 ppm at petal fall), 28%; in the test on Katinka plum [2] (1000 ppm at petal fall), 21%; in the test with Elegant Lady Peach, 36%; with Lady Elana Apricot it was 33%. Besides, the Fruit weight in the test with Cacaks plum (500 ppm at petal fall) was determined as 14.5 g; with Cacaks plum (1000 ppm at petal fall), 14.6 g; in the test with Katinka plum [2] (500 ppm at petal fall) it was 26.2 g; in the test with Katinka plum [2] (1000 ppm at petal fall) it was 28.0 g. For the same substance, the Yield came to 8.0 kg/tree in the test on Cacaks plum (500 ppm at petal fall), 7.0 kg/tree in the test with Cacaks plum (1000 ppm at petal fall), 4.2 kg/tree in the test with Katinka plum [2] (500 ppm at petal fall) and 4.4 kg/tree with Katinka plum [2] (1000 ppm at petal fall). The “Percentage of basal 18 cucumber fruits per plant that aborted” value in test [3] came out at 68%. In addition, in test [3], the “rate of fruit abortion compared to the control plants” value is “twice”.
